Tests used:
[1] = In vitro degradation in cytosolic S10 HeLa cell extract; format: in vitro ADME; settings: 10 ng sp6BY E0A or vp6 S40F, S14N, K27/33R; 5 μg S10 extract, 37°C; fluorescence or Western blot; three independent experiments (S1B Fig)
Experimental: (§1) For generation of S10, confluent dishes with HeLa cells were extensively washed and subsequently lysed with a modified S10 buffer (250 mM sucrose, 80 mM KCl, 10 mM Tris pH 7.6, 0.1% (v/v) Triton X-100 [91]). Debris and nuclei were removed by centrifugation at 10.000 × g for 10 min. Protein content was determined by BCA-Assay (Pierce) and aliquots stored at -80°C.
(§2) Typically 5 μg S10 were incubated with inhibitor or buffer and 20–100 ng sp6 at 37°C for 30 min. Reactions were stopped by addition of sample buffer and incubation at 95°C for 5 min. Remaining p6 was detected by Western blotting using an anti-p6 rabbit antiserum. Alternatively, 10 ng of BODIPY FL-labeled sp6 (sp6BY) were used as substrate and detected directly in the polyacrylamide gel by fluorescence scanning. In some experiments the amount of p6 was densitometrically quantified with the software AIDA (Raytest). For the in vitro degradation of amyloid-β 10 ng of Aβ-FITC (abcam) were used analogously to sp6BY. For the in vitro degradation of viral p6, VLPs were pelleted and lysed in IDE enzyme buffer (150 mM NaCl, 50 mM Tris pH 7.4, 0.5% (v/v) Triton X-100). The p6 content was estimated by Western blotting using a dilution series of sp6 with known concentrations. Equivalents of 15 ng were used for digestion experiments and subsequently detected by Western blotting. Experiments carried out with recombinant IDE (Calbiochem) were performed in IDE enzyme buffer. Recombinant FITC-labeled insulin was purchased from Sigma.

[2] = target: T1, insulin-degrading enzyme (IDE) (Homo sapiens, UniProt P14735); experiment: Inhibition of / competition with sp6 or sp6BY degradation in S10 extract; format: biochemical; settings: 30 min, 37°C; for stabilization of sp6 by protease inhibitor (initial screen): 100 ng sp6, 5 μg S10 extract, Western blot, 1.3 mM EDTA, 130 μM Bestatin, 600 nM Phosphoramidon; for stabilization of sp6BY by known IDE-inhibitors: 10 ng sp6BY, 5 μg S10 extract, increasing concentrations, fluorescence, at least three independent experiments (S2 Fig)
T1 construct: endogenous in cells; host or cells: HeLa cells (cytosolic S10 extract)
Experimental: as §1
as §2, with “Reactions” for “Typically 5 μg S10 were incubated with inhibitor or buffer and 20–100 ng sp6 at 37°C for 30 min. Reactions”, “buffer.” for “buffer. Recombinant FITC-labeled insulin was purchased from Sigma.”
Bestatin, Chymostatin, E-64, Leupeptin, Pepstatin, Phosphoramidon, Pefabloc SC, EDTA, Aprotinin, Antipain were purchased from Roche as part of a protease inhibitors set and used at the following concentrations: 74 μM Antipain; 130 μM Bestatin; 100 μM Chymostatin; 28 μM E-64; 1 μM Leupeptin; 1 μM Pepstatin; 600 nM Phosphoramidon; 4 mM Pefabloc SC; 1.3 mM EDTA; […]. […] (Phoenix Pharmaceuticals and Tocris), TPEN (Calbiochem), and NEM (Roche) were purchased from companies indicated.

recombinant IDE (rIDE) = target: T2, recombinant IDE (rIDE) (Rattus norvegicus, UniProt P35559); experiment: Inhibition of rIDE-mediated degradation of sp6BY; format: biochemical; settings: 10 ng rIDE, 10 ng sp6BY, 30 min, 37°C; TPEN 1 mM, NEM 1 mM, insulin 100 μg/ml
T2 construct: purchased Calbiochem
Experimental: Fig 6 IDE is sufficient and required for the in vitro degradation of sp6 and vp6. (A) 10 ng sp6BY were incubated with 5 μg S10 extract from HeLa cells, either untransfected or transfected with control or IDE-specific siRNA, for 0, 10, 30 or 90 min at 37°C. (B) sp6BY was detected by fluorescence emission and quantified. (C) VLP lysates from HEK293T cells were incubated with S10 from siRNA treated cells described in A. Viral proteins were detected as described in Fig 1. (D) Western blot analyses of the S10 extract used in A and C. The membrane was stained with antibodies specific for IDE, HSP70, and β-actin. […] (F) VLP lysates were incubated with 10 ng rIDE for 30 min.
as §2

purified mammalian IDE = settings: cited from earlier work
[3] = cytosolic S10 HeLa cell extract (S10); settings: 37°C, up to 60 min

T1 sequence (P14735 whole entry): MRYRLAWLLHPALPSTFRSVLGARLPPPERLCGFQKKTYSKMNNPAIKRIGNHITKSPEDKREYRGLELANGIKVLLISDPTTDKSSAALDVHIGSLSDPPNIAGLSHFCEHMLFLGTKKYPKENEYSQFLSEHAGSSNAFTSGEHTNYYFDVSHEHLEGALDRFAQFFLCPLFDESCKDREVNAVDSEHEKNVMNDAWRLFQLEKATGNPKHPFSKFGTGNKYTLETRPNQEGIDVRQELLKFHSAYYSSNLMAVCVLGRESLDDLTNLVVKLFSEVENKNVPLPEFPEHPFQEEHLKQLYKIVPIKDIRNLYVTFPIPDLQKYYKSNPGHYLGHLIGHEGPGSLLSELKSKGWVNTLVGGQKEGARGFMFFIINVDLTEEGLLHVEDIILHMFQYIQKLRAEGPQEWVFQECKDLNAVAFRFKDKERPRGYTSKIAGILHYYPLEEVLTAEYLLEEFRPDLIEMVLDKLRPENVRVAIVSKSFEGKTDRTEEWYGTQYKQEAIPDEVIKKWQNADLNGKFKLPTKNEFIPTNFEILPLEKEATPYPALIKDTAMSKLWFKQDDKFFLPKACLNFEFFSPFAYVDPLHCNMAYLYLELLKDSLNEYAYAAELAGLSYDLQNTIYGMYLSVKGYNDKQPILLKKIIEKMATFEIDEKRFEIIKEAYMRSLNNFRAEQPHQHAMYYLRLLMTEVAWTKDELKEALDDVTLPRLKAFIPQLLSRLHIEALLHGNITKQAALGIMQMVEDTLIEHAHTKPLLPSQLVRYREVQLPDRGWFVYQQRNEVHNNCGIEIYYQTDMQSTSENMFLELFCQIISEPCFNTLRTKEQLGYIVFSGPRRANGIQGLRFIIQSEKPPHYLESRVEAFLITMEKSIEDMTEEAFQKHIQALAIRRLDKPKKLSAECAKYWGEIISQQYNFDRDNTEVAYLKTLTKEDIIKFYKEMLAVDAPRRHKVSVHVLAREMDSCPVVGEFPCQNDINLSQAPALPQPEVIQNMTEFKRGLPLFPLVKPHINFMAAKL
T2 sequence (P35559 whole entry): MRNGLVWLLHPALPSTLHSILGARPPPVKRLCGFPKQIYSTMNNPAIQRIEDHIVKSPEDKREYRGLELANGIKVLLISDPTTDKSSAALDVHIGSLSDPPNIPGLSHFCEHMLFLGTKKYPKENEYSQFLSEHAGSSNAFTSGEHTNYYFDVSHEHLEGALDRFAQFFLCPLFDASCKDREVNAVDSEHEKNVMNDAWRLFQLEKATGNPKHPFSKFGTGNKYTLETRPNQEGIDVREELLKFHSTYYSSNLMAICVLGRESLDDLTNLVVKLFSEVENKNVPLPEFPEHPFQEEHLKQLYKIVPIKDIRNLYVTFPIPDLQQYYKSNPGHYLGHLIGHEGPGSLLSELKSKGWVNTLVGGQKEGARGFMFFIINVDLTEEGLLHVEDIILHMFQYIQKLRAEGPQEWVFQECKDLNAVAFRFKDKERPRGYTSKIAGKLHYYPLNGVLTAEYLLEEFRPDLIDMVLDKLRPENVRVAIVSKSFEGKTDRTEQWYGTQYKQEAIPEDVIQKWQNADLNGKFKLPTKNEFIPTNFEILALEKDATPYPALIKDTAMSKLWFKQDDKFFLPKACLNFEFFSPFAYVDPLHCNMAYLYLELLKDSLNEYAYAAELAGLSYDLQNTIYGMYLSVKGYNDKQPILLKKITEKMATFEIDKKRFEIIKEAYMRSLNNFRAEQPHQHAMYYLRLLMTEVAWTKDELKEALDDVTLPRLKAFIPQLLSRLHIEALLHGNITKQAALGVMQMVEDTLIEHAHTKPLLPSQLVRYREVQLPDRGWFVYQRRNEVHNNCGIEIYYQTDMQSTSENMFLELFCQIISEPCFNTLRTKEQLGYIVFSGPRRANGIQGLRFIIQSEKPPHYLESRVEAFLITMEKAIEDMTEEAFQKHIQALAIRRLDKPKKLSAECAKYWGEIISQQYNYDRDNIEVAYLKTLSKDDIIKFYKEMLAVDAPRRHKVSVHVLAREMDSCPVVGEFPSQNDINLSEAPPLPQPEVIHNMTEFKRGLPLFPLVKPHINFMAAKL

**Q.** With `CC[C@H](C)[C@H](NC(=O)[C@@H]1CCCN1C(=O)[C@H](CCC(=O)O)NC(=O)[C@H](CCC(N)=O)NC(=O)[C@H](CCCCN)NC(=O)[C@H](CCC(N)=O)NC(=O)[C@H](CO)NC(=O)[C@@H]1CCCN1C(=O)[C@@H](NC(=O)[C@@H](NC(=O)[C@@H](NC(=O)[C@H](CCC(=O)O)NC(=O)[C@H](CCC(=O)O)NC(=O)CNC(=O)[C@H](Cc1ccccc1)NC(=O)[C@H](CCCNC(=N)N)NC(=O)[C@H](Cc1ccccc1)NC(=O)[C@H](CC(N)=O)NC(=O)[C@H](CCC(=O)O)NC(=O)[C@H](CCC(=O)O)NC(=O)[C@@H]1CCCN1C(=O)[C@@H]1CCCN1C(=O)[C@H](C)NC(=O)[C@@H](NC(=O)[C@@H]1CCCN1C(=O)[C@H](CCC(=O)O)NC(=O)[C@@H]1CCCN1C(=O)[C@H](CCCNC(=N)N)NC(=O)[C@H](CO)NC(=O)[C@H](CCC(N)=O)NC(=O)[C@@H](N)CC(C)C)[C@@H](C)O)[C@@H](C)O)[C@@H](C)O)[C@@H](C)O)C(=O)N[C@@H](CC(=O)O)C(=O)N[C@@H](CCCCN)C(=O)N[C@@H](CCC(=O)O)C(=O)N[C@@H](CC(C)C)C(=O)N[C@@H](Cc1ccc(O)cc1)C(=O)N1CCC[C@H]1C(=O)N[C@@H](CC(C)C)C(=O)N[C@@H](C)C(=O)N[C@@H](CO)C(=O)N[C@@H](CC(C)C)C(=O)N[C@@H](CCCNC(=N)N)C(=O)N[C@@H](CO)C(=O)N[C@@H](CC(C)C)C(=O)N[C@@H](Cc1ccccc1)C(=O)NCC(=O)N[C@@H](CO)C(=O)N[C@@H](CC(=O)O)C(=O)N1CCC[C@H]1C(=O)N[C@@H](CO)C(=O)N[C@@H](CO)C(=O)N[C@@H](CCC(N)=O)C(=O)O` [S14N] as the molecule, how does the “degradation efficiency of HIV-1NL4-3 p6 mutants in S10 extract” value (“degradation efficiency” for short) [1] read?
**A.** The value was “wt degradation efficiency”.

**Q.** For `CC[C@H](C)[C@H](NC(=O)[C@@H]1CCCN1C(=O)[C@H](CCC(=O)O)NC(=O)[C@H](CCC(N)=O)NC(=O)[C@H](CCCNC(=N)N)NC(=O)[C@H](CCC(N)=O)NC(=O)[C@H](CO)NC(=O)[C@@H]1CCCN1C(=O)[C@@H](NC(=O)[C@@H](NC(=O)[C@@H](NC(=O)[C@H](CCC(=O)O)NC(=O)[C@H](CCC(=O)O)NC(=O)CNC(=O)[C@H](Cc1ccccc1)NC(=O)[C@H](CCCNC(=N)N)NC(=O)[C@H](Cc1ccccc1)NC(=O)[C@H](CO)NC(=O)[C@H](CCC(=O)O)NC(=O)[C@H](CCC(=O)O)NC(=O)[C@@H]1CCCN1C(=O)[C@@H]1CCCN1C(=O)[C@H](C)NC(=O)[C@@H](NC(=O)[C@@H]1CCCN1C(=O)[C@H](CCC(=O)O)NC(=O)[C@@H]1CCCN1C(=O)[C@H](CCCNC(=N)N)NC(=O)[C@H](CO)NC(=O)[C@H](CCC(N)=O)NC(=O)[C@@H](N)CC(C)C)[C@@H](C)O)[C@@H](C)O)[C@@H](C)O)[C@@H](C)O)C(=O)N[C@@H](CC(=O)O)C(=O)N[C@@H](CCCNC(=N)N)C(=O)N[C@@H](CCC(=O)O)C(=O)N[C@@H](CC(C)C)C(=O)N[C@@H](Cc1ccc(O)cc1)C(=O)N1CCC[C@H]1C(=O)N[C@@H](CC(C)C)C(=O)N[C@@H](C)C(=O)N[C@@H](CO)C(=O)N[C@@H](CC(C)C)C(=O)N[C@@H](CCCNC(=N)N)C(=O)N[C@@H](CO)C(=O)N[C@@H](CC(C)C)C(=O)N[C@@H](Cc1ccccc1)C(=O)NCC(=O)N[C@@H](CO)C(=O)N[C@@H](CC(=O)O)C(=O)N1CCC[C@H]1C(=O)N[C@@H](CO)C(=O)N[C@@H](CO)C(=O)N[C@@H](CCC(N)=O)C(=O)O` [K27/33R], which “degradation efficiency” value [1] is on record?
**A.** Its value is “wt degradation efficiency”.

**Q.** Which “stabilization of sp6 by protease inhibitor (initial screen)” value [2] does the source give for `O=C(O)CN(CCN(CC(=O)O)CC(=O)O)CC(=O)O` [EDTA] here?
**A.** Its value is “could stabilize sp6”.

**Q.** Which “stabilization of sp6 in the presence of rIDE” value (recombinant IDE (rIDE)) does the source give for `c1ccc(CN(CCN(Cc2ccccn2)Cc2ccccn2)Cc2ccccn2)nc1` [TPEN] here?
**A.** The value was “stabilized sp6”.

**Q.** For amyloid-β [Aβ], which kcat (purified mammalian IDE; purified mammalian IDE) is on record?
**A.** The kcat was 0.875 s⁻¹.

**Q.** And the Km (purified mammalian IDE; rounded value)?
**A.** Its Km is 1.2 µM.

**Q.** For `CC(C)C[C@H](NC(=O)[C@@H](O)[C@H](N)Cc1ccccc1)C(=O)O` [Bestatin], which “stabilization of sp6 by protease inhibitor (initial screen)” value [2] is on record?
**A.** The value was “did not stabilize p6”.

**Q.** For `CC[C@H](C)[C@H](NC(=O)[C@@H]1CCCN1C(=O)[C@H](CCC(=O)O)NC(=O)[C@H](CCC(N)=O)NC(=O)[C@H](CCCCN)NC(=O)[C@H](CCC(N)=O)NC(=O)[C@H](CO)NC(=O)[C@@H]1CCCN1C(=O)[C@@H](NC(=O)[C@@H](NC(=O)[C@@H](NC(=O)[C@H](CCC(=O)O)NC(=O)[C@H](CCC(=O)O)NC(=O)CNC(=O)[C@H](Cc1ccccc1)NC(=O)[C@H](CCCNC(=N)N)NC(=O)[C@H](Cc1ccccc1)NC(=O)[C@H](CO)NC(=O)[C@H](CCC(=O)O)NC(=O)[C@H](CCC(=O)O)NC(=O)[C@@H]1CCCN1C(=O)[C@@H]1CCCN1C(=O)[C@H](C)NC(=O)[C@@H](NC(=O)[C@@H]1CCCN1C(=O)[C@H](CCC(=O)O)NC(=O)[C@@H]1CCCN1C(=O)[C@H](CCCNC(=N)N)NC(=O)[C@H](CO)NC(=O)[C@H](CCC(N)=O)NC(=O)[C@@H](N)CC(C)C)[C@@H](C)O)[C@@H](C)O)[C@@H](C)O)[C@@H](C)O)C(=O)N[C@@H](CC(=O)O)C(=O)N[C@@H](CCCCN)C(=O)N[C@@H](CCC(=O)O)C(=O)N[C@@H](CC(C)C)C(=O)N[C@@H](Cc1ccc(O)cc1)C(=O)N1CCC[C@H]1C(=O)N[C@@H](CC(C)C)C(=O)N[C@@H](C)C(=O)N[C@@H](Cc1ccccc1)C(=O)N[C@@H](CC(C)C)C(=O)N[C@@H](CCCNC(=N)N)C(=O)N[C@@H](CO)C(=O)N[C@@H](CC(C)C)C(=O)N[C@@H](Cc1ccccc1)C(=O)NCC(=O)N[C@@H](CO)C(=O)N[C@@H](CC(=O)O)C(=O)N1CCC[C@H]1C(=O)N[C@@H](CO)C(=O)N[C@@H](CO)C(=O)N[C@@H](CCC(N)=O)C(=O)O` [S40F], which “degradation efficiency” value [1] is on record?
**A.** The value was “wt degradation efficiency”.

**Q.** Which “stabilization of sp6BY by known IDE-inhibitors” value [2] does the source give for `CCN1C(=O)C=CC1=O` [NEM, N-ethylmaleimide] here?
**A.** The value was “prevented the degradation of p6”.

**Q.** What about the “stabilization of sp6 in the presence of rIDE” value (recombinant IDE (rIDE)) of the same molecule?
**A.** The value was “stabilized sp6”.

**Q.** Which “stabilization of sp6BY by known IDE-inhibitors” value [2] does the source give for `Nc1ncnc2c1ncn2[C@@H]1O[C@H](COP(=O)(O)OP(=O)(O)OP(=O)(O)O)[C@@H](O)[C@H]1O` [ATP] here?
**A.** The value was “prevented the degradation of p6”.

**Q.** For “PVAQVPQGLTPTAPPVDPAVDLLEKYMQQGKRQREQRERPYKEVTEDLLHLEQGETPYREPPTEDLLHLNSLFGKDQ”, which not cleaved [3] is on record?
**A.** Its not cleaved is “no degradation observed (up to 60 min)”.

**Q.** With “PIQQKSQHNKSVVQETPQTQNLYPDLSEIKKEYNVKEKDQVEDLNLDSLWE” as the molecule, how does the not cleaved [3] read?
**A.** Its not cleaved is “no degradation observed (up to 60 min)”.

**Q.** For `CC(C)C[C@H](NP(=O)(O)O[C@@H]1O[C@@H](C)[C@H](O)[C@@H](O)[C@H]1O)C(=O)N[C@@H](Cc1c[nH]c2ccccc12)C(=O)O` [Phosphoramidon], which “stabilization of sp6 by protease inhibitor (initial screen)” value [2] is on record?
**A.** Its value is “failed to stabilize p6”.

**Q.** Which “stabilization of sp6BY by known IDE-inhibitors” value [2] does the source give for Bacitracin here?
**A.** Its value is “prevented the degradation of p6”.

**Q.** For “PMAQVHQGLMPTAPPEDPAVDLLKNYMQLGKQQREKQRESREKPYKEVTEDLLHLNSLFGGDQ”, which not cleaved [3] is on record?
**A.** The not cleaved was “no degradation observed (up to 60 min)”.

— publication PMC5384750 (PLoS ONE, 2017)
